Values joined by “and” are separate entries in the source; they are usually repeats but may differ in a detail not shown here. Identical values can stand only once.
Columns and labels:
[1] = molecular target: T1, ERBB4 receptor (Homo sapiens, UniProt Q15303); assay: Fluorescence-based competition binding assay with F-NRG1 (flow cytometry) on U2OS ERBB4/ERBB4 cells; conditions: for Fluorescence-based competition assay with NRG1 and EF-1 (normalized signal): individual replicates
T1 construct: host or cells: U2OS (osteosarcoma cells), PathHunter engineered line
Procedure: NRG1 was dissolved in PBS at a concentration of 1 mg/mL and labeled with Alexa Fluor 488 using the Alexa Fluor 488 microscale protein labeling kit (Thermo Fisher Scientific, A30006). A Bio-gel P-4 (Bio-Rad, 1504124) fine resin suspended in PBS and a dye:protein molar ratio of 5 was used to purify the labeled NRG1 according to the manufacturer’s instructions. Fluorescent labeling was evaluated by performing a dose-response experiment using F-NRG1 (1–1000 nM) on the U2OS ERBB4/ERBB4 dimerization cell line. Next, the same cell line was used to perform a competition binding assay with F-NRG1 using flow cytometry. Cells were plated in transparent U-bottom 96-well plates (Greiner Bio-One, M9436) at 5 × 10^5 cells/mL in 50 μL ice-cold buffer (PBS with 0.1% bovine serum albumin (BSA; Sigma-Aldrich, A7906) and 0.05% sodium azide (Sigma-Aldrich, S2002)). Next, cells were centrifuged at 17,968 × g for 4 min at RT and the supernatants were discarded. The cell pellets were washed with 50 μL ice-cold buffer by gently pipetting up and down. Centrifugation and washing were repeated, and the supernatants were discarded. For the competition assay between NRG1 and F-NRG1, cells were treated with NRG1 (1–100 nM) and F-NRG1 (30 nM). […] After gentle mixing of each sample, the plate was incubated for 1 h at 4 °C on a microplate shaker. Next, the plate was centrifuged at 17,968 × g for 4 min at RT and the supernatants were discarded. The cells were then washed with 100 μL ice-cold buffer, pelleted by centrifugation and washed again. The supernatants were discarded and 100 μL ice-cold buffer was added to the cell pellets and pipetted up and down to generate single-cell suspensions. These suspensions were transferred to 5-mL polystyrene round-bottom tubes, kept on ice, and exposed to minimum light until flow cytometric analysis (BD Accuri C6, BD Biosciences). Unstained cells were used to set the parameters of the flow cytometer.
Supplementary Figure 3. Receptor binding assay. (a) Fluorescence-based competition assay between […]
The Y-axis represents the […]
percentage of specific binding of F-NRG1, the x-axis represents the molar concentration of unlabeled […]
(b) DRC showing t he effect of NRG1 (full line with full circle) on the […]
1x10-6 M NRG1; n=5 biological replicates for NRG1 + EF -1 10 µM for all concentrations of NRG1, except […]
concentrations of NRG1, except n=2 for 3x10-7 M and 1x10-6 M NRG1). All data are presented as mean ± SD. Source data are provided as a Source Data file . CPD, compound; DRC; dose response curve; FC, fold change; F-NRG1, fluorescent ly labeled NRG1; M, molar concentration; NRG1, neuregulin-1; Veh, […]

[2] = system: mouse model of AngII-induced myocardial fibrosis; assay: AngII-induced myocardial fibrosis mouse model, 4 weeks, Masson's trichrome fibrosis, wild type mice; format: in vivo; parameters: key to Total fibrosis male in vivo WT with EF-1 / Total fibrosis female in vivo WT with EF-1 / Total fibrosis male in vivo WT with NA-1: fibrotic (blue-stained) area / total area
Procedure: Four weeks after implantation, cardiac ultrasound was performed, mice were euthanized, and hearts were collected. A similar set-up was used for the 1-week study (Alzet, model 1007D) in male mice (n = 9-10 mice in every group).
Hearts were fixed in 4% PFA, paraffin-embedded, and cut into 5-µm sections. Images were acquired with an Olympus BX43 microscope (Olympus Stream Motion Software) or a CELENA® S Digital Imaging System and analyzed with ImageJ 2.14.0 software. Collagen distribution was visualized by Masson’s trichrome staining. Cardiac total fibrosis was expressed as the ratio of positively stained fibrotic area (blue) to the total area and perivascular fibrosis as the ratio of fibrotic area to vascular lumen area. Scar size was determined by measuring the scar length over the […]. Hypertrophy and vascularisation were visualized via an isolectin-B4/WGA/DAPI staining. Quantification was performed by a person blinded to the treatment protocol.

[3] = molecular target: T2, ERBB2/ERBB3 (Homo sapiens, UniProt P21860); assay: PathHunter U2OS ERBB2/ERBB3 dimerization assay; format: cell-based; conditions: for ERBB3/ERBB2 dimerization signal: relative to signal with 0.1 µM NRG1, single biological replicates
T2 construct: host or cells: U2OS (osteosarcoma cells), PathHunter engineered line
Procedure: PathHunter U2OS ERBB4/ERBB4 (osteosarcoma cells; Eurofins, 93-0961C3), U2OS ERBB2/ERBB4 (osteosarcoma cells; Eurofins, 493-0960C3), ERBB2/ERBB3 (osteosarcoma cells; Eurofins, 93-1042C3) and ERBB1/ERBB1 (osteosarcoma cells; Eurofins, 93-0989C3) dimerization cell lines were cultured according to the manufacturer’s instructions. Briefly, cells were cultured in Cell Culture Reagent 103 (Eurofins, 92-3103 G) supplemented with 250 µg/mL Hygromycin B (Eurofins, 92-0029) and 500 µg/mL G418 (Eurofins, 92-0030), and were maintained at 37 °C in humidified atmosphere of 5% CO2. HCFs (Innoprot, P10454) were cultured in fibroblast medium (Innoprot, P60108) supplemented with 10% (v/v) fetal bovine serum (FBS, Innoprot), 10% (v/v) fibroblast growth supplement (Innoprot), and 1% (v/v) penicillin/streptomycin solution (Innoprot). iAMs[33] (kindly provided by LUMC) were cultured in Advanced DMEM F-12 (Thermo Fisher Scientific, 12634028) supplemented with 2% (v/v) heat-inactivated FBS (Thermo Fisher Scientific, 10270106), 1% (v/v) penicillin/streptomycin (10,000 units/mL and 10 mg/mL respectively, Thermo Fisher Scientific, 15140122), 1× GlutaMAX (Thermo Fisher Scientific, 35050061), and 100 ng/mL doxycycline (Tocris, 4090) for proliferation. To induce differentiation, iAMs were transferred to medium without doxycycline.
U2OS ERBB4/ERBB4 dimerization cells were seeded at a density of 5 × 10^4 cells/well in 100 µL Cell Plating 0 Reagent, in white 96-well plates (PerkinElmer, 6005680) and incubated for 24 h at 37 °C, 5% CO2. […] Next, 110 µL PathHunter Flash Detection Reagent was added to each well and incubated at RT for 1 h after which the luminescence signal was measured using the Luminoskan Ascent (Thermo Fisher Scientific). […] The same experimental set-up was used for the U2OS ERBB2/ERBB4, U2OS ERBB2/ERBB3 and U2OS ERBB1/ERBB1 dimerization cell lines.

[4] = female wild type mice, AngII/EF-1 group, individual animals
[5] = male wild type mice, AngII/EF-1 group, individual animals
[6] = male wild type mice, EF-1 group (no AngII), individual animals

T1 sequence (Q15303 26-1308): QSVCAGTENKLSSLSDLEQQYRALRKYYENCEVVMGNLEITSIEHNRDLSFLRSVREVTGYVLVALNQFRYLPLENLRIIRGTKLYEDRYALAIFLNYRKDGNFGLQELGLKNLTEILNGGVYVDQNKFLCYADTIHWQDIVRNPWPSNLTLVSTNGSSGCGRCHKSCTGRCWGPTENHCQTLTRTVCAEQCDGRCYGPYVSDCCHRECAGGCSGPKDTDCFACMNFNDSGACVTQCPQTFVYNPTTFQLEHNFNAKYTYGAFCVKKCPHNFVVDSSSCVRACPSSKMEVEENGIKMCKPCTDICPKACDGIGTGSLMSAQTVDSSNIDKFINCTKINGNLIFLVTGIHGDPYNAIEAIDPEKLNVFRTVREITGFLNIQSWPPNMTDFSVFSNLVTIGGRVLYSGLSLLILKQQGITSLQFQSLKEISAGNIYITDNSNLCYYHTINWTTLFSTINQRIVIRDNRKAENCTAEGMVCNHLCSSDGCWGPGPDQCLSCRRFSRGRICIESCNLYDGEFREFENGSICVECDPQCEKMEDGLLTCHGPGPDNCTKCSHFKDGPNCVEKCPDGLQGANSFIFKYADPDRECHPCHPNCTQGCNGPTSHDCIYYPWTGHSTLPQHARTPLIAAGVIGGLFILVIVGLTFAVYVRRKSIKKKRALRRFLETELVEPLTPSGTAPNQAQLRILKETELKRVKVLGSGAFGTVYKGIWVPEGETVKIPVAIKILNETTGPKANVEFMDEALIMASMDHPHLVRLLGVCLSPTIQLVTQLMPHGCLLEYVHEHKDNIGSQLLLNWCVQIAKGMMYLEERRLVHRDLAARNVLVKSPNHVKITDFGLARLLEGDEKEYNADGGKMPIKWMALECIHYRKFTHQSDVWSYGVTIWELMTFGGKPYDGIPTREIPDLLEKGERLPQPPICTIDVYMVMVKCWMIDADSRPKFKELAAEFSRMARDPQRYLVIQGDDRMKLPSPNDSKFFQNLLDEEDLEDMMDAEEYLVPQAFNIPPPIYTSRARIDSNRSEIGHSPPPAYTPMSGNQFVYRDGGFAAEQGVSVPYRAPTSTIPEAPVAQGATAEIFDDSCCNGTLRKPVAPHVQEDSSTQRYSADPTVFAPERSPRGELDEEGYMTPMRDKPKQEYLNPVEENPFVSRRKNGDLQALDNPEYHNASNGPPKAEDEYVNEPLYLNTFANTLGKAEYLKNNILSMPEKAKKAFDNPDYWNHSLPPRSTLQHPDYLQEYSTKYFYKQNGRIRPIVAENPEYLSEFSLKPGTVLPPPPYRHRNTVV
T1 sequence (Q15303 26-1308): as above
T2 sequence (P21860 20-1342): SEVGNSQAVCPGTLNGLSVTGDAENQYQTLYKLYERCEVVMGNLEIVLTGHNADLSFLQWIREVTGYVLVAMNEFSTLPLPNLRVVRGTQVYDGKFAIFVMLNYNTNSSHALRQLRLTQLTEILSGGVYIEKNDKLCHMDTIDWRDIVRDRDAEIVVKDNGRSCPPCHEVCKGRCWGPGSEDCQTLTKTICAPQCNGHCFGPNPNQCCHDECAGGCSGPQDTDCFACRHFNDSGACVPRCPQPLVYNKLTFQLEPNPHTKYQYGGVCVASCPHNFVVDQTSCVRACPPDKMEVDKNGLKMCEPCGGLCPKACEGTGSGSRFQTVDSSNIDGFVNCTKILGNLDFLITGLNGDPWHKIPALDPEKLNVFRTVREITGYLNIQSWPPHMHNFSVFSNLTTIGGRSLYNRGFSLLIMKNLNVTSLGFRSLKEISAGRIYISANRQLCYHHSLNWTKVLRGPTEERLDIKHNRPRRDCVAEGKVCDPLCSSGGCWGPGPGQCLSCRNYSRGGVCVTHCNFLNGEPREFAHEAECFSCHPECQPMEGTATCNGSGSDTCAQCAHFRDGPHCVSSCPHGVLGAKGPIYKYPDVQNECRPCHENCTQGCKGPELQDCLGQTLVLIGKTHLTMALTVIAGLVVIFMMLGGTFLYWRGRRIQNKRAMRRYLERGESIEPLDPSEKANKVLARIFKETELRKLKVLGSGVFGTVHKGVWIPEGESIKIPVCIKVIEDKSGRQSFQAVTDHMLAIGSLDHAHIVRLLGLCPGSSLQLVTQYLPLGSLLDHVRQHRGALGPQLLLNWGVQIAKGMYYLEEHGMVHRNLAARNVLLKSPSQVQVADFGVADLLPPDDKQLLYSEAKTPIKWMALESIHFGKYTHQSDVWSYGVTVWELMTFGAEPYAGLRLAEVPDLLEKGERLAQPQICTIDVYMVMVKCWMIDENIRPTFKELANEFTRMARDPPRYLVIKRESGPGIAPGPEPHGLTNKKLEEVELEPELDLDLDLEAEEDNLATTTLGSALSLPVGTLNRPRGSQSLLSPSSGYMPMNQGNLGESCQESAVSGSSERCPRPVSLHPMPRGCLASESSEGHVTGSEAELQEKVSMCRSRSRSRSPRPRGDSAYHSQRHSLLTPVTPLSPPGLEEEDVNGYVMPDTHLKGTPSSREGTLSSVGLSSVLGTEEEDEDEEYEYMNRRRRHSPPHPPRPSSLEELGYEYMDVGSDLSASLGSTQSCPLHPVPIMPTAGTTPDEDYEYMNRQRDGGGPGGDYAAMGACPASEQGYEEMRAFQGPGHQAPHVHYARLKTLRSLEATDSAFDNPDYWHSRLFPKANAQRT
T2 sequence (P04626 23-1255, further chain): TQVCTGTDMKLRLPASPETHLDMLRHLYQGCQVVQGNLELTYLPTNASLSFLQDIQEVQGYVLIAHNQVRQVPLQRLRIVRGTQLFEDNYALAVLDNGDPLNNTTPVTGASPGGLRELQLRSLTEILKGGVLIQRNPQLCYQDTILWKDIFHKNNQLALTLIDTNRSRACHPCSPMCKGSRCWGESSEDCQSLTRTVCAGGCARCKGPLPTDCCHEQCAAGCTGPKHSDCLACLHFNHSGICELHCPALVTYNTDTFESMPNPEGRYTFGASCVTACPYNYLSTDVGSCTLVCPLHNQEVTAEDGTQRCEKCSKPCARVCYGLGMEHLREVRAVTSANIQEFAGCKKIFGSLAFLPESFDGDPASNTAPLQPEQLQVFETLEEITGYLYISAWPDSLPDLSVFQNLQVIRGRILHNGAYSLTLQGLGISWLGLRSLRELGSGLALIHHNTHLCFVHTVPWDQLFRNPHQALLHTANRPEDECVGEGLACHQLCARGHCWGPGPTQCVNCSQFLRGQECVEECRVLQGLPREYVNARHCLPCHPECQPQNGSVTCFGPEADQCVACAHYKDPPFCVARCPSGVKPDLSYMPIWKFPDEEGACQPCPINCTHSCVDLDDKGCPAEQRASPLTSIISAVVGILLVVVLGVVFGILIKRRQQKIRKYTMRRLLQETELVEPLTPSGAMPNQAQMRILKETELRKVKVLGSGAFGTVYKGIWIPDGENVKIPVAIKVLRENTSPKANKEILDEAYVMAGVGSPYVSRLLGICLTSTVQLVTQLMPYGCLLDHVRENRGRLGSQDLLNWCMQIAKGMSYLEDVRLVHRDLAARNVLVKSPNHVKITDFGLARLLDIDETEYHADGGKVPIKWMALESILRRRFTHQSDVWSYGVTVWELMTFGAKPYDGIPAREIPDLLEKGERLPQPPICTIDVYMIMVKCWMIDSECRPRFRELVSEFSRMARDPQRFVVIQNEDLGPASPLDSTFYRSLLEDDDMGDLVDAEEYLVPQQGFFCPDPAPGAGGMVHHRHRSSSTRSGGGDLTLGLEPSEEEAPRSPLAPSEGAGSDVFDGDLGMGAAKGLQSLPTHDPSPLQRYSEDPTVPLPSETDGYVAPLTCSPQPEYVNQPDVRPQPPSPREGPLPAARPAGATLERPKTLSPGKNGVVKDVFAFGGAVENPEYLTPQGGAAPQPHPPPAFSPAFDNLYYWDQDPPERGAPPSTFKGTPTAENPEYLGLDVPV

O=C(NC1CC1)C(Sc1nc2ccccc2c(=O)n1C1CCCC1)c1ccccc1 (stereo not drawn) [EF-1]
competition with F-NRG1 binding (in words) ([1]; EF-1 0.1–100 μM, 30 nM F-NRG1): did not reduce binding of F-NRG1
Fluorescence-based competition assay with NRG1 and EF-1 (normalized signal) ([1]; concentration 100 pM): 100
Fluorescence-based competition assay with NRG1 and EF-1 (normalized signal) ([1]; concentration 1e-7 M): 100 and 98 and 104
Fluorescence-based competition assay with NRG1 and EF-1 (normalized signal) ([1]; concentration 1e-6 M): 102 and 93 and 105
Fluorescence-based competition assay with NRG1 and EF-1 (normalized signal) ([1]; concentration 1e-5 M): 98 (2×) and 92
Fluorescence-based competition assay with NRG1 and EF-1 (normalized signal) ([1]; concentration 0.0001 M): 94 (2×) and 95
Perivascular fibrosis female in vivo WT with EF-1 [2, 4]: 1.006 and 0.6567 and 0.4251 and 0.5106 and 0.5866 and 0.41 and 0.775 and 0.451
Total fibrosis female in vivo WT with EF-1 [2, 4]: 0.56 and 1.25 and 0.75 and 1.11 and 0.5 and 0.41 and 1.42 and 0.66
effect on AngII-induced interstitial and perivascular fibrosis (in words) ([2]; male and female wild type mice, EF-1 2 mg/kg/day, 4 weeks): significantly prevented both interstitial and perivascular fibrosis
Perivascular fibrosis male in vivo WT with EF-1 [2, 5]: 2.195 and 0.9604 and 0.7595 and 1.184 and 2.0179
Total fibrosis male in vivo WT with EF-1 [2, 5]: 1.541 and 0.4939 and 0.5555 and 0.9884 and 1.07
Perivascular fibrosis male in vivo WT with EF-1 [2, 6]: 0.7074 and 0.782 and 0.418 and 0.8908
Total fibrosis male in vivo WT with EF-1 [2, 6]: 0.8052 and 0.5165 and 0.1613 and 0.2053
EC50 [3]: > 32 µM
stimulatory effect on ERBB2/ERBB3 heterodimerization (in words) [3]: lower compared to ERBB4 homodimerization
ERBB3/ERBB2 dimerization signal ([3]; 3.125e-8 M): 0
ERBB3/ERBB2 dimerization signal ([3]; 6.25e-8 M): 4.35 and 0.16 and -2.68 and -0.63 and -0.56
ERBB3/ERBB2 dimerization signal ([3]; 1.25e-7 M): 2.37 and 0.16 and -2.68 and -1.68 and -1.97
ERBB3/ERBB2 dimerization signal ([3]; 2.5e-7 M): 0.62 and 4.11 and 0.43 and -3.27 and -3.43
ERBB3/ERBB2 dimerization signal ([3]; 5e-7 M): 0.97 and 1.82 and 6.28 and 0.82 and -2.96 and -1.11
ERBB3/ERBB2 dimerization signal ([3]; 1e-6 M): 0.96 and 9.29 and 2.03 and -1.53 and -0.18
ERBB3/ERBB2 dimerization signal ([3]; 2e-6 M): 1.34 and 1.02 and 9.84 and 3.13 and 0.57 and 2.12
ERBB3/ERBB2 dimerization signal ([3]; 4e-6 M): 3.1 and 10.27 and 4.36 and 4.61 and 5.16
ERBB3/ERBB2 dimerization signal ([3]; 8e-6 M): 4.89 and 3.3 and 12.92 and 4.35 and 9.79 and 9.65
ERBB3/ERBB2 dimerization signal ([3]; 1.6e-5 M): 11.23 and 14.98 and 10.81 and 10.98 and 13.88
ERBB3/ERBB2 dimerization signal ([3]; 3.2e-5 M): 23.82 and 14.98 and 24 and 17.43 and 15.59 and 14.95

Cc1sc2nc(SC(C)C(=O)NCc3ccc4c(c3)OCO4)n(-c3ccccc3)c(=O)c2c1C (stereo not drawn) [NA-1]
Perivascular fibrosis male in vivo WT with NA-1 ([2]; AngII/NA-1, individual animals): 1.271 and 2.289 and 2.187 and 2.2768
Total fibrosis male in vivo WT with NA-1 ([2]; AngII/NA-1, individual animals): 7.18 and 11.9815 and 8.108 and 8.95
effect on AngII-induced interstitial and perivascular fibrosis (in words) ([2]; male wild type mice, NA-1 2 mg/kg/day): did not significantly prevent interstitial or perivascular AngII-induced fibrosis

neuregulin-1 [NRG1]
IC50 ([1]; 30 nM F-NRG1, U2OS ERBB4/ERBB4 cells, read-out: IC50, reduction of binding of fluorescent NRG1 (F-NRG1) to the ERBB4 receptor): 32 nM
Fluorescence-based competition assay with NRG1 and EF-1 (normalized signal) ([1]; concentration 100 pM): 100
Fluorescence-based competition assay with NRG1 and EF-1 (normalized signal) ([1]; concentration 1e-9 M): 68.5222 and 84.1596 and 93.8458 and 74.5974 and 128.088 and 100
Fluorescence-based competition assay with NRG1 and EF-1 (normalized signal) ([1]; concentration 3e-9 M): 80.2455 and 83.5978 and 102.302 and 89.9396 and 83.9805 and 87.652
Fluorescence-based competition assay with NRG1 and EF-1 (normalized signal) ([1]; concentration 1e-8 M): 67.9682 and 69.1706 and 85.6667 and 81.6967
Fluorescence-based competition assay with NRG1 and EF-1 (normalized signal) ([1]; concentration 3e-8 M): 77.0259 and 43.4293 and 100.206 and 81.3756 and 87.2588 and 82.6252 and 67.1018 and 62.6829 and 44.3344 and 108.803
Fluorescence-based competition assay with NRG1 and EF-1 (normalized signal) ([1]; concentration 5e-8 M): 65.1587 and 61.7658 and 51.2875 and 66.8315
Fluorescence-based competition assay with NRG1 and EF-1 (normalized signal) ([1]; concentration 7.5e-8 M): 7.1162 and 78.7156 and 54.3916 and 66.0513 and 10.1361 and 60.285 and -8.7833 and 64.1512
Fluorescence-based competition assay with NRG1 and EF-1 (normalized signal) ([1]; concentration 9e-8 M): 47.1877 and 5.376 and 43.6793
Fluorescence-based competition assay with NRG1 and EF-1 (normalized signal) ([1]; concentration 1e-7 M): 0
